Source: BindingDB's records for doi:10.1016/j.bmc.2013.11.045 (Northern Kentucky University, 2013)
pIC50: −log10 of the molar value.

Assay: Inhibition of aromatase in human MCF7 cells

**Q.** With `O=C1c2ccccc2OCC1c1ccc(Oc2ccccc2)cc1` (configuration not stated) as the compound, how does the pIC50 read?
**A.** 4.77

**Q.** With `O=C1c2ccccc2OCC1c1cccnc1` (configuration not stated) as the compound, how does the pIC50 read?
**A.** 4.36
